Entries after “also recorded” stand apart in the source; their conditions may differ. Like-named read-outs stand apart in the source and are kept apart here.
Experiments:
[1] = system: primary cultured astrocyte; assay type: cell-based, mouse
GluR1-L497Y = GluR1-L497Y (Homo sapiens, UniProt P42261, L497Y); assay type: cell-based
mouse TREK-1 = target: T1, mouse TREK-1 (Mus musculus, UniProt P97438); assay: TREK-1-mediated whole-cell current in COS-7 cells; assay type: cell-based; settings: COS-7 cell expressing TREK-1; voltage ramp
T1 construct: expressed in transfected cells; host or cells: COS-7
T1 sequence (P97438 1-426): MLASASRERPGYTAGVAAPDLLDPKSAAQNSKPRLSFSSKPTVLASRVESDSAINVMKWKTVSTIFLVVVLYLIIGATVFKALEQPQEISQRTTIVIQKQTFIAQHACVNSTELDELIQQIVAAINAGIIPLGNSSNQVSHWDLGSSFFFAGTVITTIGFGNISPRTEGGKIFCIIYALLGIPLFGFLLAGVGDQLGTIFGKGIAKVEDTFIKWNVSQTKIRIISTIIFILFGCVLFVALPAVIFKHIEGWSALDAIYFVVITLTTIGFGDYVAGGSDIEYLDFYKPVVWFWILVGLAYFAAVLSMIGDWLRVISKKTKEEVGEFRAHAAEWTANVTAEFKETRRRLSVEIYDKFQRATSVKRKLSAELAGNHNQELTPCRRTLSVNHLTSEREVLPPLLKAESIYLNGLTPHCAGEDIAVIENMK
Protocol: (§1) Current-voltage (I-V) curves were recorded from COS-7 expressing TREK-1. I-V curves were established by applying 1000-ms-duration voltage ramps from +70 to −100 mV. Data were acquired by an Axopatch 200A amplifier controlled by Clampex 9.2 via Digidata 1322A data acquisition system (Molecular Devices). Internal solution contained the following (in mM: 150 KCl, 5 EGTA, 10 HEPES, 0.5 CaCl2, 1 MgCl2, pH 7.3, 280 osm). Bath solution contains the following (in mM: 150 NaCl, 10 HEPES, 3 KCl, 2 CaCl2, 2MgCl2, and 5.5 glucose, pH 7.3). The pipette solution for observing Ca^2+ activated Cl^− current (Best1 channel current) whole-cell patch clamp in astrocytes contained the following (in mM: 135 NMDG-Cl, 5 MgCl2, 5 (Ca^2+)-EGTA-N-methyl-D-glucamine (NMDG), 10 HEPES, and 10 glucose, pH 7.3, adjusted with NMDG). We used Ca^2+-free intracellular solution composed of the following (in mM: 135 NMDG-Cl, 5 EGTA-NMDG, 2 MgCl2, 8 HEPES, and 10 sucrose, pH 7.3, adjusted with NMDG). I-V curves were established by applying 1000-ms-duration voltage ramps from +100 to −100 mV.

astrocyte [2] = assay: Fura-2 Ca2+ imaging of astrocyte during sniffer patch; assay type: cell-based, mouse
Protocol: On the day of sniffer-patch, cultured astrocytes (HEK cells added) were incubated with 5 μM Fura-2 AM (mixed with 5 μl of 20% Pluronic acid) (Invitrogen) for 40 min and washed at room temperature, and subsequently transferred to a microscope stage for imaging. External solution contained (in mM): 150 NaCl, 10 Hepes, 3 KCl, 2 CaCl2, 2 MgCl2, 5.5 glucose, pH adjusted to pH 7.3 and osmolarity to 325 mOsmol kg^−1. Intensity images of 510 nm wavelength were taken at 340 nm and 380 nm excitation wavelengths using either iXon EMCCD (DV887 DCS-BV, ANDOR technology). Two resulting images were used for ratio calculations in Axon Imaging Workbench version 6.2 (Axon Instruments). GluR1LY-mediated currents were recorded from HEK cells expressing GluR1L497Y under voltage clamp (Vh=−70 mV) using Multiclamp 700B amplifier (Molecular Devices), acquired with pClamp 9.2. Recording electrodes […] were filled with (mM): 110 Cs-Gluconate, 30 CsCl, 0.5 CaCl2, 10 Hepes, 4 Mg-ATP, 0.3 Na3-GTP and 10 BAPTA (pH adjusted to 7.3 with CsOH and osmolarity adjusted to 290-310 mOsm/kg with sucrose). For simultaneous recording, Imaging Workbench was synchronized with pClamp 9.2.

astrocyte [3] = assay type: cell-based, mouse
Best1 channel = Best1 channel (Mus musculus, UniProt O88870); assay type: cell-based
GNG4 = target: T2, GNG4 (Homo sapiens, UniProt P50150); assay: Yeast two hybrid interaction of TREK-1 N-terminal segments with GNG4; assay type: binding
T2 construct: expressed in transfected cells; host or cells: yeast strain AH109
T2 sequence (P50150 1-75): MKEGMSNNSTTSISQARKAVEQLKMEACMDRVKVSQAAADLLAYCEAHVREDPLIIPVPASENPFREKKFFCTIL
Excerpt: The TREK-1-N 1-4 were ligated into pGBKT7 encoding for the GAL4 DNA binding domain (BD) and the gamma 4 was cloned into pGADT7 encoding for the activation domain (AD). To assess the protein-protein interaction between TREK-1-N and gamma 4, both BD/TREK-1-N and AD/gamma 4 were co-transformed into the yeast strain AH109. AH109 is unable to synthesize histidine. However, interaction between TREK1-N and gamma 4 enables the yeast to make the His3 enzyme, thereby permitting histidine biosynthesis and growth on His minimal medium.

TREK-1 [4] = assay: Gβγ-induced whole-cell current in cultured astrocytes; assay type: cell-based, mouse; settings: 6.09 nM Gβγ; for Gβγ-induced whole-cell current: competitive peptide in patch pipette; for Gβγ-induced conductance: 150 [Glu]in, gene silencing
Protocol: as §1
We then asked whether Gβγ can directly open any channels in cultured astrocytes. We performed whole-cell current recording with purified Gβγ in the patch-pipette according to the method of Experimentation 12. The results were shown in FIGS. 3d to 3f, FIG. 3i, and FIGS. 12d to 12f.

astrocyte [5] = assay type: cell-based, mouse; remark: listed apart in the source
TREK-1 [6] = assay: Two-cell sniffer patch: Gβγ-induced glutamate release from astrocyte; assay type: cell-based, mouse; settings: 6.09 nM Gβγ, 5 mM glutamate in pipette; peptides 100 μM
Protocol: On the day of sniffer-patch, cultured astrocytes (HEK cells added) were transferred to a microscope stage for imaging. External solution contained (in mM): 150 NaCl, 10 Hepes, 3 KCl, 2 CaCl2, 2 MgCl2, 5.5 glucose, pH adjusted to pH 7.3 and osmolarity to 325 mOsmol kg* Rupture current were recorded from astrocyte under voltage (Vh=−70 mV) using Multiclamp 700B amplifier (Molecular Devices), acquired with pClamp 9.2. Recording electrodes (4-7MΩ) were filled with (mM): 5 glutamate, 135 CsCl, 0.5 CaCl2, 10 Hepes, 4 Mg-ATP, 0.3 Na3-GTP, 10 BAPTA and 6.09 nM Gβγ (pH adjusted to 7.3 with CsOH and osmolarity adjusted to 290-310 mOsm/kg with sucrose). In the case of gene silencing, transfection method is the same as simultaneous recording for sniffer patch. In competition assay, 100 μM N1-N4 synthesized peptides were added to pipette for recording astrocyte. GluR1LY-mediated currents were recorded from HEK cells expressing GluR1-L497Y under voltage clamp (Vh=−70 mV) using Multiclamp 700B amplifier (Molecular Devices), acquired with pClamp 9.2. Recording electrodes (4-7MΩ) were filled with (mM): 110 Cs-Gluconate, 30 CsCl, 0.5 CaCl2, 10 Hepes, 4 Mg-ATP, 0.3 Na3-GTP and 10 BAPTA (pH adjusted to 7.3 with CsOH and osmolarity adjusted to 290-310 mOsm/kg with sucrose). After rupture on the side of HEK cell, GluR1-L497Y-meidated full activation was induced by the treatment of 1 mM glutamate. And then Gβγ on the side of astrocyte was injected with the rupture after 10 min later. This rupture induced both inward current on both recording between astrocyte and HEK cell expressing GluR1-L497Y.

Chain of GluR1-L497Y (P42261 19-906 L497Y limits assumed): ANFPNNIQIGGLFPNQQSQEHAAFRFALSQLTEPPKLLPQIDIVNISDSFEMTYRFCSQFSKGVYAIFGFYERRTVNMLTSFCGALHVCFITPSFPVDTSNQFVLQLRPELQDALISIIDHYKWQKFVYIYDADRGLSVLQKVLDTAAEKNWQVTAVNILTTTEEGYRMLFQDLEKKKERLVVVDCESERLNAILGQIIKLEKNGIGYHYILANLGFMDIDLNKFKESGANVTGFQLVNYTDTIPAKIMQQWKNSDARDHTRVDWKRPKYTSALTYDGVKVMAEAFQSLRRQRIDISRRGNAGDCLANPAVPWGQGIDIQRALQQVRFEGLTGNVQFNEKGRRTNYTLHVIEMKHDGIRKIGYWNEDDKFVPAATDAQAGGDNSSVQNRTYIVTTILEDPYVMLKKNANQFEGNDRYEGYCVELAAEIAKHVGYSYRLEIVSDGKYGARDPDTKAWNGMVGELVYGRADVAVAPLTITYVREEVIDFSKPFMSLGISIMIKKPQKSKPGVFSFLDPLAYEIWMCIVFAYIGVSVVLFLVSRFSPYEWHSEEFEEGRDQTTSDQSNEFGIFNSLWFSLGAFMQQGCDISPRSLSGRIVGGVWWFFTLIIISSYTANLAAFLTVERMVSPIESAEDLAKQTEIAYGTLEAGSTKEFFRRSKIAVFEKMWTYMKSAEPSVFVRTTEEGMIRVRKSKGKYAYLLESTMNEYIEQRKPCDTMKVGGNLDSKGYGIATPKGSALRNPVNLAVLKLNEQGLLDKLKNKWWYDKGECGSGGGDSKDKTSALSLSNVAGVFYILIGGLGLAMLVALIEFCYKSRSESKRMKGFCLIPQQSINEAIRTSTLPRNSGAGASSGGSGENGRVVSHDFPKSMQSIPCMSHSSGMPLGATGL
Chain of Best1 channel (O88870 whole entry, looked up): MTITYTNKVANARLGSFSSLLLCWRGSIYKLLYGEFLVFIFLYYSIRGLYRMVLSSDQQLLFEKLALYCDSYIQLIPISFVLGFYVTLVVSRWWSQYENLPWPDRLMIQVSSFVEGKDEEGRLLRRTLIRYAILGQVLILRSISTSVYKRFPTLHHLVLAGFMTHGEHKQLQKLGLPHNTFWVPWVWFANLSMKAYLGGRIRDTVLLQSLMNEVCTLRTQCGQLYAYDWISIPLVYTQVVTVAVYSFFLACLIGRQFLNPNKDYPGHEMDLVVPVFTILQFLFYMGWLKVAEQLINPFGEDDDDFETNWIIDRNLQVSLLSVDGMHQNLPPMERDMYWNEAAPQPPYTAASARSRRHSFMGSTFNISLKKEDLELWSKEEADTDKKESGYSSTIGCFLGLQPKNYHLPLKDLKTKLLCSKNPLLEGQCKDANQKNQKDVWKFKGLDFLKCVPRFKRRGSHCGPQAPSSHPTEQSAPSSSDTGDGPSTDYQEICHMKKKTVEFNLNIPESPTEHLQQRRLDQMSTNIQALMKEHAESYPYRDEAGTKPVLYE

Molecule: O=C(O)c1cccnc1Nc1cccc(C(F)(F)F)c1 [NFA, Niflumic acid]
- fast and slow-modes of TFLLR-induced glutamate release (TFLLR-induced GluR1L497Y-mediated current) [1]: inhibit; also recorded: blocked
- 1 mM glutamate-induced GluR1L497Y-mediated current of sensor cell (GluR1-L497Y): does not affect

Molecule: Cc1nc(N=Nc2ccc(S(=O)(=O)[O-])cc2S(=O)(=O)[O-])c(COP(=O)([O-])[O-])c(C=O)c1O.[Na+].[Na+].[Na+].[Na+] [PPADS, pyridoxal phosphate-6-azophenyl-2′,4′-disulfonic acid tetrasodium salt]
- fast-mode of TFLLR-induced glutamate release [1]: appeared to block
- 1 mM glutamate-induced GluR1L497Y-mediated current of sensor cell (GluR1-L497Y): non-specific effect
- TREK-1-mediated current (mouse TREK-1): inhibits

Molecule: TFLLR-NH2
- time from TFLLR to slow peak ([1]; n=31): 32.8 ± 2.6 s
- time from TFLLR to Ca2+ peak (astrocyte [2]; n=31): 10.8 ± 0.7 s
- GluR1-mediated current induced in sensor HEK cell without astrocyte (GluR1-L497Y): does not induce

Molecule: C/C=C/[C@H]1O[C@@](O)([C@@H](C)[C@H](O)[C@H](C)[C@H]2OC(=O)/C(OC)=C/C(C)=C/[C@@H](C)[C@@H](O)[C@@H](CC)[C@@H](O)[C@H](C)C/C(C)=C/C=C/[C@@H]2OC)C[C@@H](O[C@H]2C[C@@H](O)[C@H](OC(N)=O)[C@@H](C)O2)[C@@H]1C [Concanamycin A]
- fast and slow-modes of TFLLR-induced glutamate release (TFLLR-induced GluR1L497Y-mediated current) [1]: appeared to block
- 1 mM glutamate-induced GluR1L497Y-mediated current of sensor cell (GluR1-L497Y): reduced
- surface expression of GluR1-L497Y in the sensor cell (GluR1-L497Y): almost completely eliminated

Molecule: OC[C@H]1O[C@@H](n2cnc3c(NC4CCCC4)nc(Cl)nc32)[C@H](O)[C@@H]1O [CCPA, 2-chloro-N(6)-cyclopentyladenosine]
- fast-mode of glutamate release induced by the agent itself (astrocyte [3]): induces mainly fast GluR1-mediated inward current; also recorded: activated a fast-mode; also recorded: induce fast-mode
- slow-mode of glutamate release induced by the agent itself (astrocyte [3]): without a measurable Ca^2+ increase or a slow-mode
- astrocytic Ca2+ increase induced by the agent itself (astrocyte [2]; pressure-applied 100 ms): does not induce; also recorded: without a measurable Ca^2+ increase

Molecule: CCCCC/C=C\C/C=C\C/C=C\C/C=C\CCCC(=O)NCCCl [ACEA, N-(2-Chloroethyl)-5Z,8Z,11Z,14Z-eicosatetraenamide]
- fast-mode of glutamate release induced by the agent itself (astrocyte [3]): induces mainly fast-mode; also recorded: activated a fast-mode; also recorded: induce fast-mode
- slow-mode of glutamate release induced by the agent itself (astrocyte [3]): without a measurable Ca^2+ increase or a slow-mode
- astrocytic Ca2+ increase induced by the agent itself (astrocyte [2]): without a measurable Ca^2+ increase

Molecule: CO/C1=C\C(C)=C\[C@@H](C)[C@@H](O)[C@@H](C)C/C(C)=C/C=C/[C@H](OC)[C@@H]([C@@H](C)[C@@H](O)[C@H](C)[C@@]2(O)C[C@@H](O)[C@H](C)[C@@H](C(C)C)O2)OC1=O [Bafilomycin A1]
- Ca2+-activated anion current (Best1 channel): inhibited
- fast and slow-modes of TFLLR-induced glutamate release (TFLLR-induced GluR1L497Y-mediated current) [1]: significantly reduction; also recorded: significantly reduced; also recorded: appeared to block
- 1 mM glutamate-induced GluR1L497Y-mediated current of sensor cell (GluR1-L497Y): marked reduction
- GluR1LY-mediated Ca2+ transient evoked by 1 mM glutamate (GluR1-L497Y): reduces
- surface expression of GluR1-L497Y in the sensor cell (GluR1-L497Y): almost completely eliminated

Molecule: AQNSKPRLSFSS (Competitive peptides N2 of TREK-1)
- interaction with GNG4 (GNG4): strongly interacted
- Gβγ-induced whole-cell current (TREK-1 [4]): significantly reduced

Molecule: O=C([O-])c1c(Cl)c(Cl)c(Cl)c(Cl)c1-c1c2cc(I)c(=O)c(I)c-2oc2c(I)c([O-])c(I)cc12.[Na+].[Na+] [Rose Bengal]
- glutamate release in response to mechanical stimulation (astrocyte [5]): inhibited
- fast and slow-modes of TFLLR-induced glutamate release (TFLLR-induced GluR1L497Y-mediated current) [1]: does not inhibit; also recorded: did not have any effect

Molecule: AAPDLLDPKSA (Competitive peptides N1 of TREK-1)
- interaction with GNG4 (GNG4): strongly interacted
- Gβγ-induced current in astrocyte (TREK-1 [6]): significantly reduced
- Gβγ-induced glutamate release (sensor current) (TREK-1 [6]): significantly reduced
- Gβγ-induced whole-cell current (TREK-1 [4]): significantly reduced; also recorded: almost inhibit

Molecule: NCC(CC(=O)O)c1ccc(Cl)cc1 (stereo not drawn) [Baclofen]
- fast-mode of glutamate release induced by the agent itself (astrocyte [3]): activated a fast-mode; also recorded: induces fast-mode
- slow-mode of glutamate release induced by the agent itself (astrocyte [3]): without a measurable Ca^2+ increase or a slow-mode
- astrocytic Ca2+ increase induced by the agent itself (astrocyte [2]; pressure-applied 100 ms): without a Ca^2+ transient
- astrocytic Ca2+ increase induced by the agent itself (astrocyte [2]; pressure-applied 100 ms, listed as baclofen): without a measurable Ca^2+ increase

Molecule: DSAINVMKWKT (Competitive peptides N4 of TREK-1)
- interaction with GNG4 (GNG4): strongly interacted
- Gβγ-induced whole-cell current (TREK-1 [4]): significantly reduced

Molecule: TREK-1-shRNA: shRNA for mouse TREK-1 targeted at nucleotides 1043 to 1063 (SEQ ID NO: 17), in pSicoR (guide GCGTGGAGATCTACGACAAGT)
- Gβγ-induced current in astrocyte (TREK-1 [6]): abolished
- Gβγ-induced glutamate release (sensor current) (TREK-1 [6]): abolished
- fast-mode of TFLLR-induced glutamate release [1]: selectively eliminated
- slow-mode of TFLLR-induced glutamate release [1]: without affecting
- Gβγ-induced conductance (TREK-1 [4]): eliminated
- Gβγ-induced conductance (TREK-1 [4]; listed as TREK-1 specific shRNA): almost completely removed
